This assay deals with T1, HCV NS5B RdRp genotype 1b (Hepatitis C virus genotype 1b, UniProt Q9WMX2).
T1 construct: The protein was expressed with an 18 amino acid C-terminal truncation to enhance the solubility; made in house; host or cells: E. coli BL21(DE3)
T1 sequence (Q9WMX2 2420-2992): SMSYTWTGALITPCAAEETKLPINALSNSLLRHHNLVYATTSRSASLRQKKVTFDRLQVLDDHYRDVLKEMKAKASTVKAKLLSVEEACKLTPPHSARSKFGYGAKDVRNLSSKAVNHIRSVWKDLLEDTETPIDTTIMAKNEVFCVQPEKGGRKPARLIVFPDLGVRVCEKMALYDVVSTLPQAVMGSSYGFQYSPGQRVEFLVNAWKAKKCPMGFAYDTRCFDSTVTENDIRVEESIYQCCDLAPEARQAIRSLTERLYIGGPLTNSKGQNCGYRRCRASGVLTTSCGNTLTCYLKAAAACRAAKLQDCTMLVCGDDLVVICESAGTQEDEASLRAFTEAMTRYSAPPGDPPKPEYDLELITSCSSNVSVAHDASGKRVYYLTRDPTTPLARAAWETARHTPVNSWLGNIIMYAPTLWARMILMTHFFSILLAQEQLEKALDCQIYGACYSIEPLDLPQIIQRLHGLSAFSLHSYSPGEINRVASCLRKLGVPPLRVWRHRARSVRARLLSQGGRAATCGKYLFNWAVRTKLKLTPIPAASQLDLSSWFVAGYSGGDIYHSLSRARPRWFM
Put plainly: HCV NS5B RdRp enzyme assay. To be noted: IC50, HCV RdRp genotype 1b enzyme, C-terminal 18 aa truncated; average of single point IC50 values. Format: biochemical. As to the method: HCV NS5B RdRp cloning, expression and purification. The cDNA encoding the NS5B protein of HCV, genotype 1b, was cloned into the pET21a expression vector. The protein was expressed with an 18 amino acid C-terminal truncation to enhance the solubility. The E. coli competent cell line BL21(DE3) was used for expression of the protein. Cultures were grown at 37° C. for ˜4 hours until the cultures reached an optical density of 2.0 at 600 nm. The cultures were cooled to 20° C. and induced with 1 mM IPTG. Fresh ampicillin was added to a final concentration of 50 ug/ml and the cells were grown overnight at 20° C.
Cell pellets (3L) were lysed for purification to yield 15-24 mgs of purified NS5B. The lysis buffer consisted of 20 mM Tris-HCl, pH 7.4, 500 mM NaCl, 0.5% triton X-100, 1 mM DTT, 1 mM EDTA, 20% glycerol, 0.5 mg/ml lysozyme, 10 mM MgCl2, 15 ug/ml deoxyribonuclease I, and Complete TM protease inhibitor tablets (Roche). After addition of the lysis buffer, frozen cell pellets were resuspended using a tissue homogenizer. To reduce the viscosity of the sample, aliquots of the lysate were sonicated on ice using a microtip attached to a Branson sonicator. The sonicated lysate was centrifuged at 100,000×g for 1 hr at 4° C. and filtered through a 0.2 μm filter unit (Corning).
The protein was purified using three sequential chromatography steps: Heparin sepharose CL-6B, polyU sepharose 4B, and Hitrap SP sepharose (Pharmacia). The chromatography buffers were identical to the lysis buffer but contained no lysozyme, deoxyribonuclease I, MgCl2 or protease inhibitor and the NaCl concentration of the buffer was adjusted according to the requirements for charging the protein onto the column. Each column was eluted with a NaCl gradient which varied in length from 5-50 column volumes depending on the column type. After the final chromatography step, the resulting purity of the enzyme is >90% based on SDS-PAGE analysis. The enzyme was aliquoted and stored at −80° C.
HCV NS5B RdRp enzyme assay. HCV RdRp genotype 1b assays were run in assay buffer composed of 20 mM Tris-HCl, pH 7.5, 2.5 mM KCl, 5 mM MgCl2, 1 mM DTT, 1.6 U RNAse inhibitor (Promega N2515), in 96 well plates (Falcon 3918). All compounds were serially diluted in DMSO and diluted further in assay buffer such that the final concentration of DMSO in the assay was 2%. Compounds were serially diluted (3-fold each time) for a 7 point inhibition analysis. HCV RdRp genotype 1b enzyme was used at a final concentration of 28 nM. A polyA template was used at 28 nM, and the oligo-dT12-18 primer was used at 840 nM final concentration. Preannealed primer and template were obtained commercially (Amersham 27-787802). ^3H-UTP was used at 0.125 μCi (1 μM total UTP). Reaction was initiated by the addition of enzyme. Reactions were incubated at 30° C. for 45 min, and stopped by adding 30 ul of 20% ice cold TCA. Plates were chilled for 30 minutes and harvested onto Unifilter-96, GF/B plates (Packard, 6005177) using a Packard FilterMate Cell Harvester. The harvest plates were prewashed 3 times, 200 ul/well, with 100 mM NaPPi. Harvested filters were washed 30 times, 200 ul/well, with distilled water followed by ethanol. Filter plates were dried, and 30 ul/well microscint-20 was added. Plates were read on a Packard Top Count NXT.
The IC50 values for compounds were determined using […] different [I], combined with 7 nM enzyme, 800 ng of the template-primer polyC/oligoG12 (1:5 molar ratio), and 0.7 uM of ^3H GTP containing 1 uCi. The observed fractional activity (fa=vi/vo) was used in the equation IC50=[I]/(1/fa-1) to determine a single point IC50 value. Typically, the single point IC50 values derived from [I] that produced fractional activities in the range of 0.1 to 0.8 relative to the uninhibited control were averaged to calculate the IC50 value for each compound.
The compound `O=Cc1ccccc1-c1ccc(C(=O)O)cc1COc1ccc(-c2nc3cc(-c4nnn[nH]4)ccc3n2C2CCCCC2)cc1` [Example 36] gave an IC50 of 830 nM.

`COc1ccc(-c2ccc(C(=O)NCC(=O)OC(C)(C)C)cc2COc2ccc(-c3nc4cc(-c5nnn[nH]5)ccc4n3C3CCCCC3)cc2)cc1OC` [Example 96] had an IC50 of 1600 nM. Compared with the last compound, the IC50 is about 1.9-fold higher.

The compound `O=C(O)c1ccc(-c2cccc3ccccc23)c(COc2ccc(-c3nc4cc(-c5nnn[nH]5)ccc4n3C3CCCCC3)cc2)c1` [Example 28] yielded an IC50 of 620 nM.

Consider `COc1ccccc1-c1nc(COc2ccc(-c3nc4cc(-c5nnn[nH]5)ccc4n3C3CCCCC3)cc2)no1` [Example 5, 1-Cyclohexyl-2-[4-[5-(2-methoxyphenyl)-1,2,4-oxadiazol-3-ylmethoxy]phenyl]-5-[1H-tetrazol-5-yl]-1H-benzimidazole], for which the IC50 was determined as 360 nM.

Take `O=C(NC(Cc1ccc(O)cc1)C(=O)O)c1ccc(-c2ccsc2)c(COc2ccc(-c3nc4cc(-c5nnn[nH]5)ccc4n3C3CCCCC3)cc2)c1` (centres unmarked) [Example 129]: the IC50 is 290 nM. The IC50 values of the last two compounds are within 1.5-fold of each other.

Consider `O=C(O)c1ccc(-c2ccsc2)c(COc2ccc(-c3nc4cc(-c5nnn[nH]5)ccc4n3C3CCCCC3)cc2)c1` [Example 115], for which the 50% inhibitory concentration (IC50) is 40 nM.

Take `O=C(c1ccc(-c2cccc(O)c2)c(COc2ccc(-c3nc4cc(-c5nnn[nH]5)ccc4n3C3CCCCC3)cc2)c1)N1CCOCC1` [Example 65]: the midpoint of inhibition, the IC50, lay at 1700 nM. Compared with the last compound, the IC50 is about 42-fold higher.

As to `O=C(O)c1ccc(-c2cccs2)c(COc2ccc(-c3nc4cc(-c5nnn[nH]5)ccc4n3C3CCCCC3)cc2)c1` [Example 114], the 50% inhibitory concentration (IC50) is 70 nM.

Regarding `NC(=O)CCNC(=O)c1ccc(-c2ccsc2)c(COc2ccc(-c3nc4cc(-c5nnn[nH]5)ccc4n3C3CCCCC3)cc2)c1` [Example 131], the 50% inhibitory concentration (IC50) was found to be 230 nM.

The compound `O=C(O)c1ccc(-c2cc3ccccc3s2)c(COc2ccc(-c3nc4cc(-c5nnn[nH]5)ccc4n3C3CCCCC3)cc2)c1` [Example 119] had an IC50 of 30 nM.

For the compound `CSc1ccc(-c2ccc(C(=O)O)cc2COc2ccc(-c3nc4cc(-c5nnn[nH]5)ccc4n3C3CCCCC3)cc2)cc1` [Example 26], the concentration for half-maximal inhibition (IC50) came out at 190 nM. Compared with the last compound, the IC50 is about 6.3-fold higher.

`O=C(NCCCO)c1ccc(-c2cccc(O)c2)c(COc2ccc(-c3nc4cc(-c5nnn[nH]5)ccc4n3C3CCCCC3)cc2)c1` [Example 67] had an IC50 of 790 nM.

For the compound `O=C(O)C=Cc1ccc(-c2ccc(C(=O)O)cc2COc2ccc(-c3nc4cc(-c5nnn[nH]5)ccc4n3C3CCCCC3)cc2)cc1` [Example 47], half-maximal inhibition (IC50) required 50 nM.

For the compound `CNC(=O)c1ccc(-c2ccc(C#N)cc2)c(COc2ccc(-c3nc4cc(-c5nnn[nH]5)ccc4n3C3CCCCC3)cc2)c1` [Example 49], the IC50 was 80 nM.

Regarding `CC(C)(C)OC(=O)C(Cc1ccc(O)cc1)NC(=O)c1ccc(-c2ccsc2)c(COc2ccc(-c3nc4cc(-c5nnn[nH]5)ccc4n3C3CCCCC3)cc2)c1` (centres unmarked) [Example 140], half-maximal inhibition (IC50) was put at 2150 nM.

As for `CC(C)(C)OC(=O)C(Cc1cc2ccccc2[nH]1)NC(=O)c1ccc(-c2ccc(F)c(Cl)c2)c(COc2ccc(-c3nc4cc(-c5nnn[nH]5)ccc4n3C3CCCCC3)cc2)c1` (centres unmarked) [Example 85], the IC50 was 2300 nM.

In the case of `COc1ccc(-c2ccc(C(=O)NC(Cc3ccc(O)cc3)C(=O)OC(C)(C)C)cc2COc2ccc(-c3nc4cc(-c5nnn[nH]5)ccc4n3C3CCCCC3)cc2)cc1OC` (centres unmarked) [Example 95], the IC50 turned out to be 1400 nM. Against the preceding compound, the IC50 is about 1.6-fold lower.

With `COc1ccc(-c2ccc(C(=O)N(CCO)CCO)cc2COc2ccc(-c3nc4cc(-c5nnn[nH]5)ccc4n3C3CCCCC3)cc2)cc1OC` [Example 93], the IC50 was determined as 690 nM.

`O=C(c1ccc(-c2ccsc2)c(COc2ccc(-c3nc4cc(-c5nnn[nH]5)ccc4n3C3CCCCC3)cc2)c1)N1CCOCC1` [Example 133] gave an IC50 of 1100 nM.

Compound `O=C(O)CNC(=O)c1ccc(-c2cccc(O)c2)c(COc2ccc(-c3nc4cc(-c5nnn[nH]5)ccc4n3C3CCCCC3)cc2)c1` [Example 74] registered an IC50 of 150 nM.

In the case of `CC(C)(C)OC(=O)CNC(=O)c1ccc(-c2ccsc2)c(COc2ccc(-c3nc4cc(-c5nnn[nH]5)ccc4n3C3CCCCC3)cc2)c1` [Example 141], the IC50 stood at 2800 nM.

For `O=Cc1ccc(-c2ccc(C(=O)O)cc2COc2ccc(-c3nc4cc(-c5nnn[nH]5)ccc4n3C3CCCCC3)cc2)cc1` [Example 37], the midpoint of inhibition, the IC50, lay at 70 nM.

Turning to `O=C(O)c1ccc(-c2ccccc2)c(COc2ccc(-c3nc4cc(-c5nnn[nH]5)ccc4n3C3CCCCC3)cc2)c1` [Example 35], inhibition was half-maximal at 70 nM (IC50).

As for `COc1ccc(-c2ccc(C(=O)NC(Cc3ccc(O)cc3)C(=O)O)cc2COc2ccc(-c3nc4cc(-c5nnn[nH]5)ccc4n3C3CCCCC3)cc2)cc1OC` (centres unmarked) [Example 61], the half-inhibitory concentration (IC50) is 90 nM.

Take `Cc1ccc(-c2ccc(C(=O)O)cc2COc2ccc(-c3nc4cc(-c5nnn[nH]5)ccc4n3C3CCCCC3)cc2)cc1N` [Example 43]: the IC50 turned out to be 240 nM. Compared with the last compound, the IC50 is about 2.7-fold higher.

Take `O=C(c1ccc(-c2ccc(F)c(Cl)c2)c(COc2ccc(-c3nc4cc(-c5nnn[nH]5)ccc4n3C3CCCCC3)cc2)c1)N1CCCC1` [Example 77]: the IC50 came out at 1200 nM.

Compound `NC(=O)CCNC(=O)c1ccc(-c2ccc3[nH]cc(C(=O)C(F)(F)F)c3c2)c(COc2ccc(-c3nc4cc(-c5nnn[nH]5)ccc4n3C3CCCCC3)cc2)c1` [Example 155] came in with a concentration for half-maximal inhibition (IC50) of 270 nM.

Consider `CNC(=O)c1ccc(-c2ccsc2)c(COc2ccc(-c3nc4cc(-c5nnn[nH]5)ccc4n3C3CCCCC3)cc2)c1` [Example 136], for which the IC50 stood at 220 nM. This IC50 and that of the compound before are within 1.5-fold of each other.

`COC(=O)c1ccc(C(=O)NS(=O)(=O)c2ccc3c(c2)nc(-c2ccc(OCc4ccccc4)cc2)n3C2CCCCC2)cc1` [Example 17, 4-[2-(4-Benzyloxyphenyl)-1-cyclohexyl-1H-benzoimidazole-5-sulfonylaminocarbonyl]-benzoic acid methyl ester] had an IC50 of 5210 nM. This IC50 lies about 24-fold higher than the previous one.

Consider `O=C(NC(Cc1ccc(O)cc1)C(=O)O)c1ccc(-c2cccc(O)c2)c(COc2ccc(-c3nc4cc(-c5nnn[nH]5)ccc4n3C3CCCCC3)cc2)c1` (centres unmarked) [Example 53], for which half-maximal inhibition (IC50) required 570 nM.

Regarding `O=C(c1ccc(-c2cccc(O)c2)c(COc2ccc(-c3nc4cc(-c5nnn[nH]5)ccc4n3C3CCCCC3)cc2)c1)N1CCC(O)CC1` [Example 69], the IC50 is 660 nM. This IC50 and that of the compound before are within 1.5-fold of each other.

Take `O=C(O)c1ccc(-c2cc3ccccc3o2)c(COc2ccc(-c3nc4cc(-c5nnn[nH]5)ccc4n3C3CCCCC3)cc2)c1` [Example 116]: the IC50 turned out to be 170 nM. This IC50 lies about 3.9-fold lower than the previous one.

Compound `O=C(O)c1ccc(-c2ccc([N+](=O)[O-])cc2)c(COc2ccc(-c3nc4cc(-c5nnn[nH]5)ccc4n3C3CCCCC3)cc2)c1` [Example 41] came in with an IC50 of 50 nM.

`O=C(O)c1ccc(-c2ccc(CO)cc2)c(COc2ccc(-c3nc4cc(-c5nnn[nH]5)ccc4n3C3CCCCC3)cc2)c1` [Example 42] returned an IC50 of 50 nM.

`O=C(O)c1ccc(-c2ccc(C(F)(F)F)cc2)c(COc2ccc(-c3nc4cc(-c5nnn[nH]5)ccc4n3C3CCCCC3)cc2)c1` [Example 31] yielded an IC50 of 60 nM.

Consider `O=C(O)c1ccc(-c2ccc(Cl)cc2)c(COc2ccc(-c3nc4cc(-c5nnn[nH]5)ccc4n3C3CCCCC3)cc2)c1` [Example 23], for which 20 nM corresponded to half-maximal inhibition (IC50). This IC50 is about 3-fold lower than that of the compound before.

As for `COc1ccc(-c2ccc(C(=O)N3CCCC3)cc2COc2ccc(-c3nc4cc(-c5nnn[nH]5)ccc4n3C3CCCCC3)cc2)cc1OC` [Example 89], the midpoint of inhibition, the IC50, lay at 460 nM.

`COc1ccc(-c2ccc(C(=O)NCCCO)cc2COc2ccc(-c3nc4cc(-c5nnn[nH]5)ccc4n3C3CCCCC3)cc2)cc1OC` [Example 90]: the IC50 stood at 630 nM.
